Measurements as given in patent US20240425517A1, “NOVEL COMPOUND FOR DEGRADATION OF TARGET PROTEIN OR POLYPEPTIDE BY POLYUBIQUITINATION” (PRAZER THERAPEUTICS INC., priority 2021, published 2024).

Target: T1, BRD4 proteins (Homo sapiens, UniProt O60885)
T1 construct: endogenous in cells; host or cells: MM.1S
Test: Degradation of BRD4 protein in MM.1S cell lines (Western blot densitometry)
Format: cell-based
Conditions: MM.1S cells, 10 μM, 24 hours
How it was run: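 MM.1S cells in RPMI-1640 with 10% FBS were treated with each degrader at 10 μM for 24 h. RIPA lysates were analysed by SDS-PAGE/Western blot with β-actin as reference, and BRD4 band densitometry was scored as reduction <40% (+), 40-<70% (++) or ≥70% (+++).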

Structure (SMILES) | BRD4 degrading capacity (%)
Cc1sc2c(c1C)C(c1ccc(Cl)cc1)=N[C@@H](CC(=O)NCCCCC(=O)Nc1ccc(C#CCN)c(CO)c1)c1nnc(C)n1-2.Cl [5-9′, (S)—N-(4-(3-aminoprop-1-yn-1-yl)-3-(hydroxymethyl)phenyl)-5-(2-(4-(4-chlorophenyl)-2,3,9-trimethyl-6H-thieno[3,2-f][1,2,4]triazolo[4,3-a][1,4]diazepin-6-yl)acetamido)pentanamide hydrochloride] | ++ (the degrading capacity was reduced by 40% to 70% (exclusive of 70))
COC(=O)c1ccc(OCCCCNC(=O)C[C@@H]2N=C(c3ccc(Cl)cc3)c3c(sc(C)c3C)-n3c(C)nnc32)cc1C#CCN.Cl [5-12′, methyl (S)-2-(3-aminoprop-1-yn-1-yl)-4-(4-(2-(4-(4-chlorophenyl)-2,3,9-trimethyl-6H-thieno[3,2-f][1,2,4]triazolo[4,3-a][1,4]diazepin-6-yl)acetamido)butoxy)benzoate hydrochloride] | +++ (the degrading capacity was reduced by 70% or more)
COC(=O)c1ccc(C(=O)NCCCNC(=O)C[C@@H]2N=C(c3ccc(Cl)cc3)c3c(sc(C)c3C)-n3c(C)nnc32)cc1C#CCN.Cl [5-18′, methyl (S)-2-(3-aminoprop-1-yn-1-yl)-4-((3-(2-(4-(4-chlorophenyl)-2,3,9-trimethyl-6H-thieno[3,2-f][1,2,4]triazolo[4,3-a][1,4]diazepin-6-yl)acetamido)propyl)carbamoyl)benzoate hydrochloride] | +++ (the degrading capacity was reduced by 70% or more)
COC(=O)c1ccc(C(=O)NC2CCN(C(=O)C[C@@H]3N=C(c4ccc(Cl)cc4)c4c(sc(C)c4C)-n4c(C)nnc43)CC2)cc1C#CCN.Cl [5-22′, methyl (S)-2-(3-aminoprop-1-yn-1-yl)-4-((1-(2-(4-(4-chlorophenyl)-2,3,9-trimethyl-6H-thieno[3,2-f][1,2,4]triazolo[4,3-a][1,4]diazepin-6-yl)acetyl)piperidin-4-yl)carbamoyl)benzoate hydrochloride] | +++ (the degrading capacity was reduced by 70% or more)
COC(=O)c1ccc(NC(=O)C2CCN(C(=O)C[C@@H]3N=C(c4ccc(Cl)cc4)c4c(sc(C)c4C)-n4c(C)nnc43)CC2)cc1C#CCN.Cl [5-23′, methyl (S)-2-(3-aminoprop-1-yn-1-yl)-4-(1-(2-(4-(4-chlorophenyl)-2,3,9-trimethyl-6H-thieno[3,2-f][1,2,4]triazolo[4,3-a][1,4]diazepin-6-yl)acetyl)piperidine-4-carboxamido)benzoate hydrochloride] | +++ (the degrading capacity was reduced by 70% or more)
COC(=O)c1ccc(NC(=O)CCNC(=O)C2CCN(C(=O)C[C@@H]3N=C(c4ccc(Cl)cc4)c4c(sc(C)c4C)-n4c(C)nnc43)CC2)cc1C#CCN.Cl [5-25′, methyl (S)-2-(3-aminoprop-1-yn-1-yl)-4-(3-(1-(2-(4-(4-chlorophenyl)-2,3,9-trimethyl-6H-thieno[3,2-f][1,2,4]triazolo[4,3-a][1,4]diazepin-6-yl)acetyl)piperidine-4-carboxamido)propanamido)benzoate hydrochloride] | +++ (the degrading capacity was reduced by 70% or more)
COC(=O)c1ccc(NC(=O)CCCNC(=O)C2CCN(C(=O)C[C@@H]3N=C(c4ccc(Cl)cc4)c4c(sc(C)c4C)-n4c(C)nnc43)CC2)cc1C#CCN.Cl [5-26′, methyl (S)-2-(3-aminoprop-1-yn-1-yl)-4-(4-(1-(2-(4-(4-chlorophenyl)-2,3,9-trimethyl-6H-thieno[3,2-f][1,2,4]triazolo[4,3-a][1,4]diazepin-6-yl)acetyl)piperidine-4-carboxamido)butanamido)benzoate hydrochloride] | ++ (the degrading capacity was reduced by 40% to 70% (exclusive of 70))
COC(=O)c1ccc(C(=O)NCCCNC(=O)C2CCN(C(=O)C[C@@H]3N=C(c4ccc(Cl)cc4)c4c(sc(C)c4C)-n4c(C)nnc43)CC2)cc1C#CCN.Cl [5-27′, methyl (S)-2-(3-aminoprop-1-yn-1-yl)-4-((3-(1-(2-(4-(4-chlorophenyl)-2,3,9-trimethyl-6H-thieno[3,2-f][1,2,4]triazolo[4,3-a][1,4]diazepin-6-yl)acetyl)piperidine-4-carboxamido)propyl)carbamoyl)benzoate hydrochloride] | ++ (the degrading capacity was reduced by 40% to 70% (exclusive of 70))
COC(=O)c1ccc(C#CCNC(=O)C2CCN(C(=O)C[C@@H]3N=C(c4ccc(Cl)cc4)c4c(sc(C)c4C)-n4c(C)nnc43)CC2)cc1C#CCN.Cl [5-28′, methyl (S)-2-(3-aminoprop-1-yn-1-yl)-4-(3-(1-(2-(4-(4-chlorophenyl)-2,3,9-trimethyl-6H-thieno[3,2-f][1,2,4]triazolo[4,3-a][1,4]diazepin-6-yl)acetyl)piperidine-4-carboxamido)prop-1-yn-1-yl)benzoate hydrochloride] | +++ (the degrading capacity was reduced by 70% or more)
COC(=O)c1ccc(N2CCN(CC3CCN(C(=O)C[C@@H]4N=C(c5ccc(Cl)cc5)c5c(sc(C)c5C)-n5c(C)nnc54)CC3)CC2)cc1C#CCN.Cl [5-29′, methyl (S)-2-(3-aminoprop-1-yn-1-yl)-4-(4-((1-(2-(4-(4-chlorophenyl)-2,3,9-trimethyl-6H-thieno[3,2-f][1,2,4]triazolo[4,3-a][1,4]diazepin-6-yl)acetyl)piperidin-4-yl)methyl)piperazin-1-yl)benzoate hydrochloride] | +++ (the degrading capacity was reduced by 70% or more)
COC(=O)c1ccc(N2CCN(C(=O)CCNC(=O)C[C@@H]3N=C(c4ccc(Cl)cc4)c4c(sc(C)c4C)-n4c(C)nnc43)CC2)cc1C#CCN.Cl [5-32′, methyl (S)-2-(3-aminoprop-1-yn-1-yl)-4-(4-(3-(2-(4-(4-chlorophenyl)-2,3,9-trimethyl-6H-thieno[3,2-f][1,2,4]triazolo[4,3-a][1,4]diazepin-6-yl)acetamido)propanoyl)piperazin-1-yl)benzoate hydrochloride] | +++ (the degrading capacity was reduced by 70% or more)
COC(=O)c1cc(N2CCN(C(=O)CCNC(=O)C[C@@H]3N=C(c4ccc(Cl)cc4)c4c(sc(C)c4C)-n4c(C)nnc43)CC2)ccc1C#CCN.Cl [5-33′, methyl (S)-2-(3-aminoprop-1-yn-1-yl)-5-(4-(3-(2-(4-(4-chlorophenyl)-2,3,9-trimethyl-6H-thieno[3,2-f][1,2,4]triazolo[4,3-a][1,4]diazepin-6-yl)acetamido)propanoyl)piperazin-1-yl)benzoate hydrochloride] | ++ (the degrading capacity was reduced by 40% to 70% (exclusive of 70))
COC(=O)c1ccc(NC2CCC(NC(=O)C[C@@H]3N=C(c4ccc(Cl)cc4)c4c(sc(C)c4C)-n4c(C)nnc43)CC2)cc1C#CCN (stereo partly drawn) [5-35′, methyl (S)-2-(3-aminoprop-1-yn-1-yl)-4-((4-(2-(4-(4-chlorophenyl)-2,3,9-trimethyl-6H-thieno[3,2-f][1,2,4]triazolo[4,3-a][1,4]diazepin-6-yl)acetamido)cyclohexyl)amino)benzoate trifluoroacetic acid] | +++ (the degrading capacity was reduced by 70% or more)
